Results: PubChem BioAssay AID1963438 (Molecular Pharmacology Branch, DTP, NCI, 2024)

System: NCI-H510 multicellular tumor spheroid growth, % test/control
Assay: Anticancer human tumor NCI-H510 cell line growth inhibition [Asc];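 note: spheroids exposed to agents for 7 days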;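 for viability, T/C: 100% = DMSO vehicle control wells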
Conditions: for IC50: curve of first compound; for viability, T/C: stronger effect = lower value; active = viability on the fitted dose curve at most 10% of control; inactive = the rest
Experimental: Multicellular complex tumor spheroid response to apoptosis pathway targeting inhibitors Alrizomadlin, Pelcitoclax, and Dasminapant in combination with a variety of drugs and investigational agents in selected tumor cell lines
The MDM2 inhibitor alrizomadlin, the Bcl-2/Bcl-xL inhibitor pelcitoclax, and the IAPs inhibitor dasminapant were evaluated both individually and in combination with standard of care and investigational anticancer small molecules within a complex spheroid model of solid tumors. . Complex spheroids include a stromal component modeled by human endothelial cells (HUVEC) and fibroblasts modeled by human mesenchymal stem cells (MSCs). The concentration ranges selected for each drug and investigational agent were based upon clinically achievable concentrations if the clinical Cmax of the agent was known.
Compounds. The drugs and investigational agents: alrizomadlin (APG-115; NSC831270), pelcitoclax (APG-1252; NSC835773), dasminapant (APG-1387;NSC834197), TAK-243 (NSC785004), copanlisib (NSC809693), olaparib (NSC753686), talazoparib (NSC767125), cobimetinib (NSC 768068), eltanexor (KPT-8602, NSC 794443), abemaciclib (NSC 768073), sotorasib (NSC818433), adagrasib (NSC 831453), MRTX-1133 (NSC 836407), Iadademestat (ORY1001, NSC 806812), and RMC-4630 (NSC839698), were obtained from the NCI Developmental Therapeutics Program Chemical Repository. The FDA-approved anticancer drug set is available from the Developmental Therapeutics Program at https://dtp.cancer.gov/organization/dscb/obtaining/available plates.htm. […] The stock solutions were prepared in dimethyl sulfoxide (DMSO, Sigma-Aldrich, St. Louis, MO, cat. D2650) at 800-fold the tested concentration and stored at -70 degrees C prior to their use. All drugs and investigational agents were tested over a range starting from a high concentration at or near the clinical Cmax and decreasing in half-log increments. If the clinical Cmax for an agent had not been determined, the highest concentration tested was 10 microM.
The patient-derived cancer (PDC) cell lines include five colon adenocarcinomas: 186277-243-T-J2-PDC, 616215-338-R-J1-PDC, 439559-082-T-J2-PDC, 463943-066-T-J2-PDC, and 519858-162-T-J1-PDC; three pancreatic carcinomas: 323965-272-R-J2-PDC, 521955-158-R6-J3-PDC, and 521955-158-R2-J5-PDC; two uterine sarcomas: 327498-152-R-J2-PDC and 993429-296-R-J1-PDC; two rhabdomyosarcomas: 755483-174-R-J1-PDC and 772245-204-R-J1-PDC; two soft tissue sarcomas: 126254-015-R-J1-PDC and 494315-158-R-J1-PDC; two malignant fibrous histiocytomas: 317291-083-R-J1-PDC and 596521-263-R-J1-PDC; two breast carcinomas: 171881-019-R-J1-PDC and 885512-296-R-J2-PDC; and one ovarian carcinoma: 6556581-035-R-J-PDC were obtained from the NCI PDMR, (https://pdmr.cancer.gov). The established cell lines HSSY-2 synovial sarcoma (RRID:CVCL 8719), SYO-1 synovial sarcoma (RRID:CVCL_7146), MPNST malignant peripheral neural sheath tumor were obtained from the Sloan Kettering Institute. The following established cell lines were purchased from the American Type Culture Collection (ATCC, Manassas, VA), Sor the received from the NCI repository:, PANC-1 pancreatic carcinoma (CRL-1469, RRID:CVCL_0480), OVCAR-5 ovarian carcinoma (RRID:CVCL_1628), OVCAR-8 ovarian carcinoma (RRID:CVCL_1629), , MCF-7 breast carcinoma (CRL-12584, RRID:CVCL_0031), MDA-MB-231 breast carcinoma (CRL-12532, RRID:CVCL_0062), NCI-H1876 small cell lung carcinoma (CRL-5902, RRID:CVCL_1503), NCI-H510A small cell lung carcinoma (HTB-184, RRID:CVCL_1565), NCI-H1417 (CRL-5869, RRID:CVCL_1469), and NCI-H196 small cell lung carcinoma (CRL-5823, RRID:CVCL_1509). Dr. Peter Houghton (Greehey Children's Cancer Research Institute, University of Texas Health Science Center, San Antonio, TX) provided Rh-18 rhabdomyosarcoma (RRID:CVCL_1659). Pooled donor human umbilical vein endothelial cells (HUVEC, Lonza, cat. CC-2519) and human mesenchymal stem cells (hMSC, Lonza, cat. PT-2501) were purchased from Lonza (Walkersville, MD).
Cell Culture. […]

[1] = second compound 0.1 µM, first compound 0.0316 µM
[2] = second compound 0.1 µM, first compound 0.1 µM
[3] = second compound 0.316 µM, first compound 0.0316 µM
[4] = second compound 0.316 µM, first compound 0.1 µM
[5] = second compound 1 µM, first compound 0.0316 µM
[6] = second compound 1 µM, first compound 0.1 µM

C#Cc1c(F)ccc2cc(O)cc(-c3ncc4c(N5CC6CCC(C5)N6)nc(OCC56CCCN5CC(F)C6)nc4c3F)c12 (configuration not stated) + CNC(C)C(=O)NC1CN(S(=O)(=O)c2cccc(S(=O)(=O)N3CCC4CCC(C(=O)NC(c5ccccc5)c5ccccc5)N4C(=O)C(NC(=O)C(C)NC)C3)c2)CCC2CCC(C(=O)NC(c3ccccc3)c3ccccc3)N2C1=O
inactive: viability, T/C (second compound 0.00316 µM, first compound 0.0316 µM) 97.9% | viability, T/C (second compound 0.00316 µM, first compound 0.1 µM) 101% | viability, T/C (second compound 0.00316 µM, first compound 0.316 µM) 93.2% | viability, T/C (second compound 0.00316 µM, first compound 1 µM) 87.7% | viability, T/C (second compound 0.00316 µM, first compound 3.16 µM) 102% | viability, T/C (second compound 0.00316 µM, first compound 10 µM) 104% | viability, T/C (second compound 0.01 µM, first compound 0.0316 µM) 109% | viability, T/C (second compound 0.01 µM, first compound 0.1 µM) 98.3% | viability, T/C (second compound 0.01 µM, first compound 0.316 µM) 97.1% | viability, T/C (second compound 0.01 µM, first compound 1 µM) 99.7% | viability, T/C (second compound 0.01 µM, first compound 3.16 µM) 107% | viability, T/C (second compound 0.01 µM, first compound 10 µM) 93.3% | viability, T/C (second compound 0.0316 µM, first compound 0.0316 µM) 103% | viability, T/C (second compound 0.0316 µM, first compound 0.1 µM) 97.7% | viability, T/C (second compound 0.0316 µM, first compound 0.316 µM) 96.7% | viability, T/C (second compound 0.0316 µM, first compound 1 µM) 106% | viability, T/C (second compound 0.0316 µM, first compound 3.16 µM) 114% | viability, T/C (second compound 0.0316 µM, first compound 10 µM) 90.8% | viability, T/C [1] 112% | viability, T/C [2] 103% | viability, T/C (second compound 0.1 µM, first compound 0.316 µM) 97.8% | viability, T/C (second compound 0.1 µM, first compound 1 µM) 97.8% | viability, T/C (second compound 0.1 µM, first compound 3.16 µM) 112% | viability, T/C (second compound 0.1 µM, first compound 10 µM) 96.6% | viability, T/C [3] 114% | viability, T/C [4] 101% | viability, T/C (second compound 0.316 µM, first compound 0.316 µM) 104% | viability, T/C (second compound 0.316 µM, first compound 1 µM) 104% | viability, T/C (second compound 0.316 µM, first compound 3.16 µM) 97.7% | viability, T/C (second compound 0.316 µM, first compound 10 µM) 114% | viability, T/C [5] 120% | viability, T/C [6] 107% | viability, T/C (second compound 1 µM, first compound 0.316 µM) 108% | viability, T/C (second compound 1 µM, first compound 1 µM) 95.7% | viability, T/C (second compound 1 µM, first compound 3.16 µM) 104% | viability, T/C (second compound 1 µM, first compound 10 µM) 114%
> 10 µM: IC50 (second compound 0.00316 µM) | IC50 (second compound 0.01 µM) | IC50 (second compound 0.0316 µM) | IC50 (second compound 0.1 µM) | IC50 (second compound 0.316 µM) | IC50 (second compound 1 µM)

NC1CCC(NC2CC2c2ccccc2)CC1 (configuration not stated) + Cc1c(S(C)(=O)=O)c(-c2cc(F)cc(N3CCN(c4ccc(NS(=O)(=O)c5ccc(NC(CCN6CCC(C(=O)OCCCP(=O)(O)O)CC6)CSc6ccccc6)c(S(=O)(=O)C(F)(F)F)c5)cc4)CC3)c2)c(-c2ccc(Cl)cc2)n1C(C)C
inactive: viability, T/C (second compound 0.1 µM, first compound 0.000316 µM) 88.8% | viability, T/C (second compound 0.1 µM, first compound 0.001 µM) 85% | viability, T/C (second compound 0.1 µM, first compound 0.00316 µM) 74.1% | viability, T/C (second compound 0.1 µM, first compound 0.01 µM) 87.7% | viability, T/C [1] 67.5% | viability, T/C [2] 90.4% | viability, T/C (second compound 0.316 µM, first compound 0.000316 µM) 86.1% | viability, T/C (second compound 0.316 µM, first compound 0.001 µM) 85.8% | viability, T/C (second compound 0.316 µM, first compound 0.00316 µM) 76.9% | viability, T/C (second compound 0.316 µM, first compound 0.01 µM) 66.5% | viability, T/C [3] 78.4% | viability, T/C [4] 97.9% | viability, T/C (second compound 1 µM, first compound 0.000316 µM) 116% | viability, T/C (second compound 1 µM, first compound 0.001 µM) 77.8% | viability, T/C (second compound 1 µM, first compound 0.00316 µM) 63.8% | viability, T/C (second compound 1 µM, first compound 0.01 µM) 67.1% | viability, T/C [5] 64% | viability, T/C [6] 59.6% | viability, T/C (second compound 3.16 µM, first compound 0.000316 µM) 81% | viability, T/C (second compound 3.16 µM, first compound 0.001 µM) 80.2% | viability, T/C (second compound 3.16 µM, first compound 0.00316 µM) 74.8% | viability, T/C (second compound 3.16 µM, first compound 0.01 µM) 67.1% | viability, T/C (second compound 3.16 µM, first compound 0.0316 µM) 80.6% | viability, T/C (second compound 3.16 µM, first compound 0.1 µM) 69.9% | viability, T/C (second compound 10 µM, first compound 0.000316 µM) 66.8% | viability, T/C (second compound 10 µM, first compound 0.001 µM) 63.1% | viability, T/C (second compound 10 µM, first compound 0.00316 µM) 63.6% | viability, T/C (second compound 10 µM, first compound 0.01 µM) 91% | viability, T/C (second compound 10 µM, first compound 0.0316 µM) 102% | viability, T/C (second compound 10 µM, first compound 0.1 µM) 36.1%
> 0.1 µM: IC50 (second compound 0.1 µM) | IC50 (second compound 0.316 µM) | IC50 (second compound 1 µM) | IC50 (second compound 3.16 µM) | IC50 (second compound 10 µM)
